In ChEMBL document CHEMBL1137094, “Facile incorporation of urea pseudopeptides into protease substrate analogue inhibitors” (Bioorg Med Chem Lett, 2004):
pIC50: −log10 of the molar value. Each block holds one compound with its values, some of them ahead of it.

How the values were obtained:
[1] = target: Human immunodeficiency virus type 1 protease (Human immunodeficiency virus 1) (UniProt Q72874); experiment: Percent inhibition against human immunodeficiency virus protease in fluorescence assay; details: concentration not given here
[2] = target: Human immunodeficiency virus type 1 protease (Human immunodeficiency virus 1, UniProt Q72874); experiment: Inhibitory concentration against human immunodeficiency virus protease in fluorescence assay
[3] = target: T1, Angiotensin-converting enzyme (Sus scrofa, UniProt Q4ACT8); experiment: Inhibitory concentration against porcine kidney angiotensin converting enzyme cleavage of hippuryl-histidyl-leucine (HHL)
T1 sequence (Q4ACT8 whole entry): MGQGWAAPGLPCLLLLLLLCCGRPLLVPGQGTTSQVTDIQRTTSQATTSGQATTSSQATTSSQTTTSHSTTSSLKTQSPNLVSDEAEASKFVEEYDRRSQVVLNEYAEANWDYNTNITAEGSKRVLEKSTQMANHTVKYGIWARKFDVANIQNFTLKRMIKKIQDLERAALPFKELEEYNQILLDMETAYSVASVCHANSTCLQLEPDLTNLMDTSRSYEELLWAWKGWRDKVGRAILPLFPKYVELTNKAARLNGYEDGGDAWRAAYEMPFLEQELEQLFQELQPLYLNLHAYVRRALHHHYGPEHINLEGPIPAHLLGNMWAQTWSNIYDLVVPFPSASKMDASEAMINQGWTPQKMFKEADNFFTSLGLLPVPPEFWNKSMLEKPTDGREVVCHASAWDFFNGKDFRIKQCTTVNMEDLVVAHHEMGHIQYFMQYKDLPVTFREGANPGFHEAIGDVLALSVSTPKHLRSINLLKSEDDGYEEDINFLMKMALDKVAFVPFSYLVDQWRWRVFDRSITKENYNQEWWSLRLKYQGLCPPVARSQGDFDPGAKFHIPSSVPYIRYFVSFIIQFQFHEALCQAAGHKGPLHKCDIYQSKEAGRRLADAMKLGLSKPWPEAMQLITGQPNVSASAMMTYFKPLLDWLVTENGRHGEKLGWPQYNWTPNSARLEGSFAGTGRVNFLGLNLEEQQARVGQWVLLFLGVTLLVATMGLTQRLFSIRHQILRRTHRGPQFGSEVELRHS

- inhibition [1]: 35%
Compound: COC(=O)[C@@H](NC(=O)[C@@H](NC(=O)C(Cc1ccccc1)NC(=O)N[C@H](Cc1ccccc1)NC(=O)[C@H](C)NC(=O)[C@H](C)NC(=O)OCc1ccccc1)C(C)C)C(C)C (stereo partly drawn)

Compound: COC(=O)[C@@H](NC(=O)[C@@H](NC(=O)[C@H](Cc1ccccc1)NC(=O)N[C@H](Cc1ccccc1)NC(=O)[C@H](C)NC(=O)[C@H](C)N)C(C)C)C(C)C
- pIC50 [2]: 4.49

- pIC50 [3]: 3.06
Compound: CC(C)C[C@H](NC(=O)[C@H](Cc1ccccc1)NC(=O)NCNC(=O)CNC(=O)[C@@H](N)Cc1ccc(O)cc1)C(=O)O
